For the test, the system named is gilts. Kind of test: Example 1: estrus observation (boar exposure, back pressure) after triptorelin gel. In kind it is in vivo, swine. The following applies: 200 mcg T at 120 h post-MATRIX; raw average; PTK 1-07 (rep 3). The protocol:
All gilts were individually fed MATRIX® as a top-dress for 14 days at the recommended rate of 15 mg/gilt/day. Gilts were withdrawn from MATRIX® feeding (last top feed in the morning on Day 0) and allotted to treatments. Controls were treated with a 1.2% methylcellulose gel formulation without triptorelin at 96 hours following MATRIX® withdrawal (last top-dress). The remaining gilts received 200 mcg triptorelin, as the acetate, in a 1.2% methylcellulose gel formulation intravaginally at various times after MATRIX® withdrawal. The four treatments were: 1) vehicle gel (VG) treatment at 96 hours after MATRIX® withdrawal, 2) triptorelin gel (TG) treatment at 96 hours after MATRIX® withdrawal, 3) TG treatment at 120 hours after MATRIX® withdrawal and 4) TG treatment at 144 hours after MATRIX® withdrawal. All gilts were monitored for their estrous and ovulatory status as described below. Gilts included in replicate 1 were selected from terminal line commercial production gilts located in grow/finish barns. Sexual maturity, as indicated by one or more estrous periods, was not verified prior to the start of MATRIX® feeding. Gilts included in replicate 2 were selected from a maternal line gilt population. Sexual maturity was verified by at least one estrous period verified and recorded prior to starting MATRIX® feeding. […]
Data were analyzed using the Mixed Models procedures of SAS. […]

As for `CC(C)C[C@H](NC(=O)[C@@H](Cc1c[nH]c2ccccc12)NC(=O)[C@H](Cc1ccc(O)cc1)NC(=O)[C@H](CO)NC(=O)[C@H](Cc1c[nH]c2ccccc12)NC(=O)[C@H](Cc1c[nH]cn1)NC(=O)[C@@H]1CCC(=O)N1)C(=O)N[C@@H](CCCNC(=N)N)C(=O)N1CCC[C@H]1C(=O)NCC(N)=O` [T, pGlu-His-Trp-Ser-Tyr-D-Trp-Leu-Arg-Pro-Gly-NH2], the “Estrous Expression (%)” value was 100.0%.
